Values joined by “and” are separate entries in the source; they are usually repeats but may differ in a detail not shown here. Equal values may be shown once.
Experiments:
[1] = In vitro-in vivo extrapolation (IVIVE) to estimate Css, rat; conditions: for Css / Css (steady-state concentration, plasma): IVIVE, BW 0.25 kg; for Css: ID 0.042 mg/kg/hr; for Css (steady-state concentration, plasma): intake dosage 1 mg/kg/day; for fraction unbound at 300 min: Sprague Dawley, blood, fub=fup/(1-hemocrit ref value), hematocrit 0.439; for Clint: scaled (HPGL 117, Vl 9.5 g)
Method: Fraction unbound (fu) in plasma (fup) and percent stability calculations are detailed in Supplementary Text S10. Hepatic clearance, the fu in blood (fub) (fu in plasma adjusted for blood:plasma partitioning), and renal clearance were used to derive the steady-state concentration (Css) of each compound that will be used for in vitro–in vivo extrapolation (IVIVE). Renal clearance was calculated using the glomerular filtration rate (a species-dependent constant) and the fub. The Css calculation is detailed in Supplementary Text S11.
Linear regression analysis in conjunction […]
cells in the Clint equation. […]
concentration by the T300 min concentration (Equation E). Chemical stability in plasma was assessed […]
(F) Percent Stability = T300minutesT60minutes∗100 […]
blood (fub) of the parent compound. The Clhepatic calculation is shown in the second part of the denominator of Equation G; it is the product of the species dependent liver blood flow constant, the fub of the parent compound, and the experimentally derived intrins ic clearance (s hown in Equation D) divided by the sum these three values. All values used in Equation G are for first order conditions of metabolism in the liver. All calculations, scalars, and species dependent values used to conduct the Css calculation to facilitate in vitro-in vivo extrapolation (IVIVE) are provided Table S19 within the Excel worksheet, the tab […]
Based on the principle of reverse dosimetry, the Css values derived from IVIVE will be u sed as conversion factors to generate AEDs according to Equation H. In this equation, the AED is linearly related to the in vitro concentration and inversely related to the Css. It is only valid for first-order metabolism that is expected at ambient exposure levels.
(H) AED ൮ mgkg൲ = in vitro concentration (µM )

rat hepatocytes = assay: Hepatocyte metabolic stability (clearance) assay, rat hepatocytes; conditions: for Negative Control Data, Heat Treated (HT), 15 min / Negative Control Data, Heat Treated (HT), 240 min: heat treated rat hepatocytes; for Negative Control Data, Heat Treated (HT), 15 min / Negative Control Data, Heat Treated (HT), 240 min / Negative Control Data, No cells (NC), 15 min / Negative Control Data, No cells (NC), 240 min / Ln Concentration, 0 min / Ln Concentration, 15 min / Ln Concentration, 30 min / Ln Concentration, 60 min / Ln Concentration, 120 min / Ln Concentration, 240 min / Linear Regression Best-Fit Slope (Ln concentration vs time): 1000 nM; for Negative Control Data, Heat Treated (HT), 15 min / Negative Control Data, Heat Treated (HT), 240 min / Negative Control Data, No cells (NC), 15 min / Negative Control Data, No cells (NC), 240 min: Ln concentration; for Negative Control Data, Heat Treated (HT), 15 min / Negative Control Data, Heat Treated (HT), 240 min / Negative Control Data, No cells (NC), 15 min / Negative Control Data, No cells (NC), 240 min / Ln Concentration, 0 min / Ln Concentration, 15 min / Ln Concentration, 30 min / Ln Concentration, 60 min / Ln Concentration, 120 min / Ln Concentration, 240 min: Rep 1-3; for Clin vitro: rat hepatocytes, 1 µM; for Ln Concentration, 0 min / Ln Concentration, 15 min / Ln Concentration, 30 min / Ln Concentration, 60 min / Ln Concentration, 120 min / Ln Concentration, 240 min / Linear Regression Best-Fit Slope (Ln concentration vs time): suspended rat hepatocytes; for Linear Regression Best-Fit Slope (Ln concentration vs time): time in min
Method: Information on the chemicals and materials used in the hepatocyte metabolic work can be found in Supplementary Text S9 and Table S3. In vitro evaluations of hepatocyte metabolic stability were performed in human and rat hepatocytes, as previously described. Briefly, pooled, cryopreserved hepatocyte suspensions were thawed, assessed for viability, and then diluted in William’s medium E containing dexamethasone and cell maintenance cocktail B to achieve a cell density of 50,000 cells/100 µL. The assay was started by adding hepatocyte suspensions to wells of 96-well polypropylene plates containing an equal volume of media with 2 µM of analyte (final assay concentration: 1 µM). Plates were placed in a 37 °C cell culture incubator (5% CO2) on a shaker set to 200 rpm. Time points assessed were T0, T15, T30, T60, T120, and T240 min. At each time point, the plates were removed from the shaker and the incubates were crashed with an equal volume of ice-cold ACN containing 1.2% FA and 16 ng/mL of ^13C3 -HFPO-DA. After chilling and centrifugation at 4122× g, the supernatants were transferred to new collection plates and stored at −70 °C until analysis for the parent compound on the Waters instrumentation described below. Immediately prior to analysis, samples were thawed, vortexed, and centrifuged at 4200× g, and then diluted 1:4 in 95:5 H2O/ACN with 2.5 mM of ammonium acetate. Negative controls, including no cell controls and metabolically inactivated hepatocytes, were run concurrently to assess the chemical stability over the time course.
Intrinsic clearance (Clint; hepatic clearance) calculations are detailed in Supplementary Text S9 [57].
Targeted, quantitative analysis of in vitro hepatocyte metabolic stability and plasma protein binding assay samples was conducted on a Waters Xevo-TQS micro mass spectrometer (Waters, Milford, MA, USA) ultra-high-performance liquid chromatography tandem mass spectrometry system (UPLC-MS/MS), modified with a PFAS analysis kit. Samples were analyzed in negative ion mode with UniSpray ionization. A CORTECS T3 column (Waters CORTECS, 3 × 100 mm, particle size 2.7 µm) was used for chromatographic separation with a flow rate of 0.6 mL/min and a temperature of 55 °C. Gradient elution was used with eluent A (95:5 H2O/ACN) and eluent B (95:5 ACN/H2O) with 2.5 mM of ammonium acetate. The gradient is available in Table S11. Additional details for MS parameters are found in Table S12 and monitored transitions are found in Table S13.
Table S2: Data processing parameters used with Sciex MarkerView 1.3.1.
Support ing Text S9: Hepatocyte Metabolic Stability Assay Materials, Chemicals, and Calculations
Pooled human and rat cryopreserved primary hepatocyte suspensions were both obtained from
BioIVT, a US Food and Drug Administration-licensed and inspected donor center, and produced using
non-transplantable tissue.
William’s E media, dexamet hasone (98% pure), and cell maintenance cocktail B were obtained from
Thermo Fisher Scientific (Waltham, MA, USA), the OptiThaw hepatocyte kit from Sekisui/Xenotech
(Tokyo, Japan), and the trypan blue s (Sekisui/ Xenotech, Tokyo, Japan) and the trypan blue solution from […]

Row | SMILES | Clhep (hepatic clearance) [1] [L/h] | Css [1] [ng/mL] | Css (steady-state concentration, plasma) [1] | fraction unbound at 300 min [1] | Clint [1] [µL/min] | Negative Control Data, Heat Treated (HT), 15 min (rat hepatocytes) | Negative Control Data, Heat Treated (HT), 240 min (rat hepatocytes) | Negative Control Data, No cells (NC), 15 min (rat hepatocytes) | Negative Control Data, No cells (NC), 240 min (rat hepatocytes) | Clin vitro (rat hepatocytes) [µL/min/106 cells] | Ln Concentration, 0 min (rat hepatocytes) | Ln Concentration, 15 min (rat hepatocytes) | Ln Concentration, 30 min (rat hepatocytes) | Ln Concentration, 60 min (rat hepatocytes) | Ln Concentration, 120 min (rat hepatocytes) | Ln Concentration, 240 min (rat hepatocytes) | Linear Regression Best-Fit Slope (Ln concentration vs time) (rat hepatocytes)
1 | O=C(O)C(F)(OC(F)(F)C(F)(OC(F)(F)C(F)(OC(F)(F)C(F)(F)C(F)(F)F)C(F)(F)F)C(F)(F)F)C(F)(F)F (stereo not drawn) [HFPO-TeA, perfluoro-(2,5,8-trimethyl-3,6,9-trioxadodecanoic) acid] | 0 | 12550 | 19 µM and 18.96 µM and 18.9581 µM | 0.0105 | 0 | 2.6401 and 2.4357 and 2.5979 | 3.3942 and 3.4965 and 3.9620 | 2.6401 and 2.4357 and 2.5979 | 3.6957 and 3.6025 and 3.5122 | 0 | 3.0306 and 2.9008 and 2.9997 | 3.0932 and 2.2706 and 2.9515 | 4.2083 and 3.3638 and 2.7617 | 3.2078 and 2.9997 and 2.8429 | 4.0404 and 3.2267 and 2.8611 | 4.3810 and 4.0785 and 4.0446 | 0.001258
2 | O=C(O)C(F)(OC(F)(F)C(F)(F)C(F)(F)F)C(F)(F)F (stereo not drawn) [HFPO-DA, perfluoro-2-methyl-3-oxahexanoic acid] | 0 | 2400 | 7.27 µM and 7.2674 µM | 0.0547 | 0 | 4.4280 and 4.9483 and 5.2322 | 4.4378 and 4.5247 and 4.4650 | 4.4280 and 4.9483 and 5.2322 | 4.5318 and 4.4615 and 4.4489 | 0 | 4.5114 and 4.4660 and 4.4552 | 4.5017 and 4.4578 and 4.5341 | 4.4026 and 4.3249 and 4.4576 | 4.2774 and 4.4540 and 4.5417 | 4.3832 and 4.5273 and 4.3707 | 4.5604 and 4.5454 and 4.5567 | 0.0002303
3 | O=C(O)C(F)(OC(F)(F)C(F)(OC(F)(F)C(F)(F)C(F)(F)F)C(F)(F)F)C(F)(F)F (stereo not drawn) [HFPO-TA, perfluoro-(2,5-dimethyl-3,6-dioxanonanoic) acid] | 0 | 40600 | 81.84 µM and 81.8399 µM | 0.0032 | 0 | 4.1725 and 4.8897 and 5.4522 | 4.9004 and 4.9391 and 4.9107 | 4.1725 and 4.8897 and 5.4522 | 3.9230 and 4.2019 and 3.8754 | 0 | 4.5979 and 4.6454 and 4.5374 | 4.8189 and 4.7145 and 4.8521 | 4.7856 and 4.6050 and 4.6111 | 4.8438 and 4.7495 and 4.8027 | 4.6843 and 4.6317 and 4.5468 | 4.7393 and 4.9247 and 4.8505 | 0.0003164

Source: publication PMC10747602, “Dose Response, Dosimetric, and Metabolic Evaluations of Replacement PFAS Perfluoro-(2,5,8-trimethyl-3,6,9-trioxadodecanoic) Acid (HFPO-TeA)” (Toxics, 2023)
